The results in this text go back to publication PMC9229949 (Pharmaceutics, 2022).

Series [1] has as its system β-hematin formation. The series can be described thus: β-hematin formation inhibition by infrared spectroscopy. Format: biochemical. On the set-up: key: Yes indicates β-hematin inhibition; No indicates β-hematin formation. The following applies: 3:1 ratio of drug:hematin, qualitative by infrared. As for the experimental part:
The conversion of hemin to β-hematin was determined by infrared (IR) spectroscopy as described by Egan et al.. […] Then, 0.3 mL of 0.1 M HCl and 1.7 mL of sodium acetate buffer ([…], pH 5) were added at the same temperature. […] The solid was dried and IR spectra were obtained using attenuated total reflection (ATR) using chloroquine as a positive control.

For series [2], the system named is P. falciparum W2 (CQ-resistant) asexual blood stages. The series can be described thus: In vitro activity against asexual blood stages of P. falciparum, CQ-resistant strain W2 (HRP2 ELISA). In kind it is cell-based. Particulars: Plasmodium falciparum, W2. Here is the method: The plates were incubated for 72 h at 37 °C in controlled atmosphere. After frozen and thawing the plates, hemolyzed cultures were homogenized by vortexing the plates. The antiparasitic activity was determined using the HRP2 ELISA-based assay Malaria Ag Celisa kit (ref KM2159, Cellabs PTY LDT, Brookvale, Australia). […] IC50s are expressed as means of three to five experiments.

Series [3] is described as follows: Cytotoxicity against J774 cells (CellTiter-Glo). In kind it is cell-based, murine. Particulars: mouse, J774 macrophage cells; J774 macrophages, 72 h, CellTiterGlo; at least two experiments; read-out: CC50 ± S.E.M. Here is the method:
In vitro cytotoxicity was assayed against two mammalian cell lineages, J774 (murine macrophages) and HepG2 (human hepatocellular carcinoma). […] Cell cultures from 60 to 80% confluence were trypsinized, washed in complete medium, and 4 × 10^4 cells were plated in 100 µL per well with complete medium in 96-well flat-bottom white plates for 24 h at 37 °C prior to the addition of the compounds. Triplicate aliquots of compound and the reference drugs (stock solution in DMSO) covering 7 different concentrations at 2-fold dilutions were added to the wells, and plates were incubated for 72 h more. After incubation for 72 h at 37 °C, plates were maintained at room temperature, the culture medium was removed, and 100 µL volume of CellTiter-Glo reagent was added to each well. The bioluminescence was measured using a microplate reader Filtermax F5 Multi-Mode instrument (Molecular Devices) and Softmax software. […] The selectivity index (S.I.) was estimated using the IC50s from mammalian cells divided by the IC50 obtained against the asexual blood stage P. falciparum.

Like-named read-outs stand apart in the source and are kept apart here.

What is called CC50 is the concentration at which the toxic effect on the cells reaches its halfway point. `CCN(CC)Cc1cc(Nc2ccnc3cc(Cl)ccc23)ccc1O` [Amodiaquine (AQ), amodiaquine]: the “β-Hematin Inhibitory Activity (BHIA) Determined by IR” value in series [1] is listed as “Yes”. Moreover, the IC50 worked out at 86.2 ± 9.4 nM in series [2] (72 h incubation, HRP2 ELISA, mean ± S.E.M. of at least three experiments, AQ hydrochloride hydrate, PQ diphosphate, CQ diphosphate, read-out: P. falciparum, IC50 ± S.E.M., CQ-Resistant W2) and 86 ± 9 nM in series [2] (Figure 5 summary, read-out: CQ-resistant P.f.). The CC50 at 72 h in series [3] is 23800 nM.
